Laboratory results reported in ChEMBL document CHEMBL4334523, “Enzymatic Preparation of 2'-5',3'-5'-Cyclic Dinucleotides, Their Binding Properties to Stimulator of Interferon Genes Adaptor Protein, and Structure/Activity Correlations” (J Med Chem, 2019).

Assays:
[1] = cells; settings: Homo sapiens, HEK-293T, 0.5 h
Description: Activation of recombinant human STING haplotype R232H mutant expressed in 293T cells measured after 30 mins in presence of digitonin A by bright Glo-luciferase reporter gene assay

[2] = species on record: Homo sapiens; assay type: cell-based
[3] = target: Stimulator of interferon genes protein (Homo sapiens, UniProt Q86WV6, G230A/R293Q); test: Activation of recombinant human STING haplotype G230A/R293Q mutant expressed in 293T cells measured after 30 mins in presence of digitonin A by bright Glo-luciferase reporter gene assay; assay type: cell-based
[4] = tested on: Monocyte; test: Cytotoxicity against human PBMC-derived monocytes assessed as CD3-negative CD14 positive monocyte viability at 12.5 uM incubated for 16 hrs by Zombie-NIR staining-based flow cytometry relative to control; assay type: functional
[5] = target: Stimulator of interferon genes protein (Homo sapiens, UniProt Q86WV6, R293Q); test: Activation of recombinant human STING haplotype R293Q mutant expressed in 293T cells measured after 30 mins in presence of digitonin A by bright Glo-luciferase reporter gene assay; assay type: cell-based
[6] = Cytotoxicity against human PBMC-derived CD3-positive T cells assessed as effect on cell viability at 12.5 uM incubated for 16 hrs by Zombie-NIR staining-based flow cytometry
[7] = target: T1, Stimulator of interferon genes protein (Homo sapiens, UniProt Q86WV6); test: Activation of recombinant human wild-type STING expressed in 293T cells incubated for 7 hrs in absence of digitonin A by bright Glo-luciferase reporter gene assay; assay type: cell-based
[8] = target: T1, Stimulator of interferon genes protein
Description: Binding affinity to recombinant human wild-type STING assessed as change in melting temperature at 150 uM by SYPRO orange dye based differential scanning fluorimetric method

[9] = target: T1, Stimulator of interferon genes protein; test: Activation of recombinant human wild-type STING expressed in 293T cells measured after 30 mins in presence of digitonin A by bright Glo-luciferase reporter gene assay; assay type: cell-based
[10] = target: Stimulator of interferon genes protein (Homo sapiens, UniProt Q86WV6, G230A/R293Q/R71H); test: Activation of recombinant human STING haplotype R71H/G230A/R293Q mutant expressed in 293T cells measured after 30 mins in presence of digitonin A by bright Glo-luciferase reporter gene assay; assay type: cell-based
Sequence of Stimulator of interferon genes protein (Homo sapiens, UniProt Q86WV6, G230A/R293Q/R71H) (Q86WV6 whole entry R71H/G230A/R293Q): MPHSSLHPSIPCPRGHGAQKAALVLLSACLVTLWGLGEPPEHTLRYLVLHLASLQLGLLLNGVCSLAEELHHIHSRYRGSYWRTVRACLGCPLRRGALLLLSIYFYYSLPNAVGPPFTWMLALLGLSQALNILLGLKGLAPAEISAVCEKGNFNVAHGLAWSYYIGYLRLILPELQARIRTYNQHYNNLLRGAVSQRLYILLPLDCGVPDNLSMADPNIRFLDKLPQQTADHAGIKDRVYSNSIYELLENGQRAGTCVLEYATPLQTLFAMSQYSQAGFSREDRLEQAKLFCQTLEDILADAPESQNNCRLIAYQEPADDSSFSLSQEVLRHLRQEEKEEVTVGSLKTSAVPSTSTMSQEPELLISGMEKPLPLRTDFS

Sequence of Stimulator of interferon genes protein (Homo sapiens, UniProt Q86WV6, R293Q) (Q86WV6 whole entry R293Q): as the sequence (Q86WV6 whole entry R71H/G230A/R293Q) above, with H71R, A230G counted along it
T1 sequence (Q86WV6 whole entry): as the sequence (Q86WV6 whole entry R71H/G230A/R293Q) above, with H71R, A230G, Q293R counted along it
Sequence of Stimulator of interferon genes protein (Homo sapiens, UniProt Q86WV6, G230A/R293Q) (Q86WV6 whole entry G230A/R293Q): as the sequence (Q86WV6 whole entry R71H/G230A/R293Q) above, with H71R counted along it

SMILES	EC50 [1] [nM]	max activation [2] [%]	EC50 [3] [nM]	Activity [4] [%]	EC50 [5] [nM]	Activity [6]	EC50 [7] [nM]	ΔTm [8] [°C]	EC50 [9] [nM]	EC50 [10] [nM]
Nc1nc2c(ncn2[C@@H]2O[C@@H]3COP(=O)(O)O[C@H]4C[C@H](n5cnc6c(N)nc(Cl)nc65)O[C@@H]4COP(=O)(O)O[C@@H]2[C@@H]3O)c(=O)[nH]1	4700	< 30	90	0.1	960	Non-Toxic	58200	9.5	70	80
Nc1nc2c(ncn2[C@@H]2O[C@@H]3COP(=O)(O)O[C@H]4[C@@H](F)[C@H](n5cnc6c(N)nc(F)nc65)O[C@@H]4COP(=O)(O)O[C@@H]2[C@@H]3O)c(=O)[nH]1	70	< 30	30	0.4	80	Non-Toxic	11000	14.7	20	80
Nc1nc2c(ncn2[C@@H]2O[C@@H]3COP(=O)(O)O[C@H]4[C@@H](O)[C@H](n5cnc6c(O)nc(O)nc65)O[C@@H]4COP(=O)(O)O[C@@H]2[C@@H]3O)c(=O)[nH]1	20900	< 30	2000	45	32800	Non-Toxic	> 300000	2.4	1800	1700
Nc1nc2c(ncn2[C@@H]2O[C@@H]3COP(=O)(O)O[C@H]4[C@H](O)[C@H](n5cnc6c(N)nc(F)nc65)O[C@@H]4COP(=O)(O)O[C@@H]2[C@@H]3O)c(=O)[nH]1	6400	< 30	60	3	600	Non-Toxic	187000	12.3	200	100
CNc1ncnc2c1ncn2[C@@H]1O[C@@H]2COP(=O)(O)O[C@@H]3[C@H](O)[C@@H](COP(=O)(O)O[C@H]2[C@H]1O)O[C@H]3n1cnc2c(=O)[nH]c(N)nc21	700	< 30	60	0.8	1200	Non-Toxic	63700	9	20	60
Nc1nc2c(ccn2[C@@H]2O[C@@H]3COP(=O)(O)O[C@H]4[C@@H](O)[C@H](n5cnc6c(N)ncnc65)O[C@@H]4COP(=O)(O)O[C@@H]2[C@@H]3O)c(=O)[nH]1	3500	< 30	60	0.9	1100	Non-Toxic	40400	6.6	40	100
NC(=O)c1ncn([C@@H]2O[C@@H]3COP(=O)(O)O[C@H]4[C@@H](O)[C@H](n5cnc6c(N)ncnc65)O[C@@H]4COP(=O)(O)O[C@@H]2[C@@H]3O)c1N	> 45000	< 30	420	87	47200	Non-Toxic	> 300000	0.6	830	400
Nc1nc2c(ncn2[C@@H]2O[C@@H]3COP(=O)(O)O[C@H]4C[C@H](n5cnc6c(N)nc(F)nc65)O[C@@H]4COP(=O)(O)O[C@@H]2[C@@H]3F)c(=O)[nH]1	2000	< 30	170	0.2	700	Non-Toxic	> 300000	10.7	50	100
Nc1nc2c([C@@H]3O[C@@H]4COP(=O)(O)O[C@H]5[C@@H](O)[C@H](n6cnc7c(N)ncnc76)O[C@@H]5COP(=O)(O)O[C@@H]3[C@@H]4O)scc2c(=O)[nH]1	6000	< 30	50	0.9	3000	Non-Toxic	241000	2.8	110	250
CSc1ncnc2c1ncn2[C@@H]1O[C@@H]2COP(=O)(O)O[C@@H]3[C@H](O)[C@@H](COP(=O)(O)O[C@H]2[C@H]1O)O[C@H]3n1cnc2c(=O)[nH]c(N)nc21	2300	< 30	60	0.4	1230	Non-Toxic	13300	8.3	10	60
Nc1nc2c(ncn2[C@@H]2O[C@@H]3COP(=O)(O)O[C@H]4[C@@H](O)[C@H](n5cnc6c(=S)[nH]cnc65)O[C@@H]4COP(=O)(O)O[C@@H]2[C@@H]3O)c(=O)[nH]1	1700	< 30	150	10	8300	Non-Toxic	182000	7.3	300	200
Nc1nc2c(ncn2[C@@H]2O[C@@H]3COP(=O)(O)O[C@H]4[C@@H](N)[C@H](n5cnc6c(N)ncnc65)O[C@@H]4COP(=O)(O)O[C@@H]2[C@@H]3O)c(=O)[nH]1	1400	< 30	20	3	240	Non-Toxic	108000	9.4	20	30
Nc1nc(N)c2ncn([C@@H]3O[C@@H]4COP(=O)(O)O[C@@H]5[C@H](O)[C@@H](COP(=O)(O)O[C@H]4[C@H]3F)O[C@H]5n3cnc4c(=O)[nH]c(N)nc43)c2n1	170	< 30	30	2.5	130	Non-Toxic	27600	14.4	20	40
NC(=O)c1ncn([C@@H]2O[C@@H]3COP(=O)(O)O[C@@H]4[C@H](O)[C@@H](COP(=O)(O)O[C@H]3[C@H]2O)O[C@H]4n2cnc3c(=O)[nH]c(N)nc32)c1N	> 45000	< 30	210	83	45300	Non-Toxic	> 300000	1.7	320	210
CSc1nc(N)nc2c1ncn2[C@@H]1O[C@@H]2COP(=O)(O)O[C@@H]3[C@H](O)[C@@H](COP(=O)(O)O[C@H]2[C@H]1O)O[C@H]3n1cnc2c(=O)[nH]c(N)nc21	27600	< 30	240	4.8	8500	Non-Toxic	> 300000	3.5	300	480
Nc1nc2c(ncn2[C@@H]2O[C@@H]3COP(=O)(O)O[C@H]4[C@@H](O)[C@H](n5nnc6c(N)ncnc65)O[C@@H]4COP(=O)(O)O[C@@H]2[C@@H]3O)c(=O)[nH]1	34200	< 30	210	2.3	5720	Non-Toxic	> 300000	3.9	230	310
